Measured values reported in PubChem BioAssay (NCI).
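Where inhibition never reached the appropriate level, the endpoint shown equals the highest concentration tested. Otherwise, values were interpolated linearly from a five-concentration, 48-hour dose response in 96-well plates. At the GI50, growth is halved. Definition used: TGI = concentration required for complete inhibition of growth.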

Columns and labels:
Assay in all cases: NCI anticancer screen, dose series, 48 h
CAKI-1 renal = system: CAKI-1 renal
IGROV1 ovarian = system: IGROV1 ovarian
U251 CNS = system: U251 CNS
A549 NSCLC = system: A549 NSCLC
MCF7 breast = system: MCF7 breast
TK-10 renal = system: TK-10 renal
SK-OV-3 ovarian = system: SK-OV-3 ovarian
SN12C renal = system: SN12C renal

Row | Compound | TGI (CAKI-1 renal) [µM] | TGI (IGROV1 ovarian) [µM] | TGI (U251 CNS) [µM] | TGI (A549 NSCLC) [µM] | TGI (MCF7 breast) [µM] | TGI (TK-10 renal) [µM] | TGI (SK-OV-3 ovarian) [µM] | TGI (SN12C renal) [µM] | GI50 (CAKI-1 renal) [µM] | GI50 (SN12C renal) [µM] | GI50 (IGROV1 ovarian) [µM] | GI50 (U251 CNS) [µM] | GI50 (A549 NSCLC) [µM] | GI50 (TK-10 renal) [µM] | GI50 (SK-OV-3 ovarian) [µM] | GI50 (MCF7 breast) [µM]
1 | Cc1cc(S(=O)(=O)N=C2Nc3cccc4cccc(c34)N2)c(S)cc1Cl | > 100 | > 100 | > 100 | > 100 | > 100 | – | – | – | – | – | – | – | – | – | – | –
2 | O=C1c2cc3c(cc2CC12Cc1ccc4c(c1C2=O)CCC4)CCC3 (configuration not stated) | > 100 | > 100 | > 100 | > 100 | > 100 | > 100 | > 100 | – | – | – | – | – | – | – | – | –
3 | COC1(CC[C@H](C)COC2OC(CO)C(O)C(O)C2O)O[C@H]2C[C@H]3[C@@H]4CC=C5C[C@@H](OC6OC(CO)C(OC7OC(C)C(O)C(O)C7O)C(O)C6OC6OC(C)C(O)C(O)C6O)CC[C@]5(C)[C@H]4CC[C@]3(C)[C@H]2[C@@H]1C (some centres not stated) | 3.26 | 20.1 | 7.36 | 4.28 | 39.8 | > 100 | 7.99 | > 100 | – | – | – | – | – | – | – | –
4 | CSc1nc(Cl)c2c(n1)Sc1nc3ccccc3n1C2O (configuration not stated) | – | > 100 | 15.2 | > 96.4 | > 100 | > 100 | > 100 | > 100 | – | – | – | – | – | – | – | –
5 | CCOC(=O)/C=C/CCC(C)(C)COC(C)=O | > 10 | > 10 | > 10 | > 10 | > 10 | > 10 | > 10 | > 10 | – | – | – | – | – | – | – | –
6 | COc1ccc2c(c1OC)C(=O)N1C2=Cc2c(cc3c(c2OC)OCO3)CC1N(C)C (configuration not stated) | > 100 | > 100 | > 100 | > 100 | > 100 | > 100 | > 100 | > 100 | – | – | – | – | – | – | – | –
7 | Cc1c(C(=O)NNc2ccccc2)n2c(=S)[nH]nc2c2ccccc12 | > 100 | > 100 | > 100 | > 100 | > 100 | > 100 | > 100 | > 100 | – | – | – | – | – | – | – | –
8 | COc1ccc(C(=O)/C=C/SC(=NC#N)SC)cc1 | 54.8 | 57.3 | 37.9 | > 100 | 38.2 | 42.2 | 47.5 | 75.2 | – | – | – | – | – | – | – | –
9 | CCCCNC(=O)Cn1c2ccc(Br)cc2c2nc3ccccc3nc21 | > 100 | > 100 | > 100 | > 100 | – | > 100 | – | > 100 | – | – | – | – | – | – | – | –
10 | CSc1nc(=O)c2nc(-c3cccs3)c(-c3cccs3)nc2n1C | > 100 | > 100 | > 100 | > 100 | > 100 | > 100 | > 100 | > 100 | – | – | – | – | – | – | – | –
11 | CC1=C(C)SC(=C2Sc3c(n(C)c(=O)n(C)c3=O)S2)S1 | > 100 | > 100 | 18.9 | > 100 | > 100 | 74.7 | 33.5 | > 100 | – | – | – | – | – | – | – | –
12 | C=CN(C=C)C(=O)Cn1cc(-c2ccccc2)nn1 | > 100 | > 100 | > 100 | > 100 | > 100 | > 100 | – | > 100 | – | – | – | – | – | – | – | –
13 | COc1cc2c(c(OC)c1)[C@H](C)N(Cc1ccccc1)C(C)C2 (some centres not stated) | > 100 | > 100 | – | > 100 | > 100 | > 100 | > 100 | > 100 | – | – | – | – | – | – | – | –
14 | Nc1c(N2CCOCC2)c(=O)nc2[nH]/c(=C\c3ccccc3O)c(=O)n12 | > 100 | > 100 | > 100 | > 100 | > 100 | > 100 | > 100 | > 100 | – | – | – | – | – | – | – | –
15 | CCN(CC)CCCCNc1c2ccc(Cl)cc2nc2ccc(OC)cc12 | 3.76 | 8.61 | 2.16 | 2.58 | 1.69 | 4.59 | 3.46 | 2.61 | 1.14 | 0.438 | 0.777 | 0.45 | 0.367 | 0.925 | 0.637 | 0.294
16 | O=C(c1ccc([N+](=O)[O-])cc1)N1CCCC1 | > 100 | > 100 | > 100 | > 100 | > 100 | > 100 | – | > 100 | – | – | – | – | – | – | – | –
17 | CN1c2ccccc2C2=C(c3ccccc3)CC[C@@H](C(=O)N3C4CC5CC[C@@]4(CS3(=O)=O)C5(C)C)[C@@H]21 (some centres not stated) | > 100 | > 100 | > 100 | > 100 | > 100 | > 100 | > 100 | > 100 | – | – | – | – | – | – | – | –
18 | CO[P@@]1(=O)O[C@@H](c2ccccc2)[C@H](O)[C@]1(O)c1ccccc1 | > 100 | > 100 | > 100 | > 100 | > 100 | > 100 | > 100 | > 100 | – | – | – | – | – | – | – | –
19 | NC(=O)c1ccc[n+](C2=C([O-])c3ccccc3C(=O)/C2=N\S(=O)(=O)c2ccccc2)c1 | 37.1 | 24.5 | 29 | 37.7 | 29.6 | > 100 | > 100 | 30.9 | – | – | – | – | – | – | – | –
20 | O=c1c2cc([N+](=O)[O-])ccc2oc2nc3n(c(=O)c12)CCCS3 | > 100 | > 100 | > 100 | > 100 | > 100 | > 100 | > 100 | > 100 | – | – | – | – | – | – | – | –
21 | CCOC(=O)N1CCN(c2c(N)nc(C)[nH]c2=O)CC1 | – | – | > 100 | > 100 | > 100 | > 100 | – | > 100 | – | – | – | – | – | – | – | –
22 | CCc1nc2c(c(N(C)C)c1C(=O)OC)CCc1ccccc1-2 | > 100 | > 100 | > 100 | > 100 | 48.2 | > 100 | 51.4 | > 100 | – | – | – | – | – | – | – | –
23 | CNC(=S)N1CCN(C(C)=O)C1=S | > 100 | > 100 | 17.2 | > 100 | > 100 | > 100 | > 100 | > 100 | – | – | – | – | – | – | – | –
24 | CC1(C)C=C(/C=C2/N(S(=O)(=O)C(F)(F)F)C(/C=C3/N(S(=O)(=O)C(F)(F)F)C(C)(C#N)CC3(C)C)=CC2(C)C)N=C1/C=C1/CC(C)(C)C(=O)N1 (configuration not stated) | > 100 | 62.9 | > 100 | > 100 | > 100 | > 100 | > 100 | > 100 | – | – | – | – | – | – | – | –
